# Experimental data published in US20260209234A1, “SUBSTITUTED DIHYDROPYRROLO[3,4-D]PYRIMIDINE COMPOUNDS AND THEIR USE IN TREATING MEDICAL CONDITIONS” (Karuna Therapeutics, Inc., priority 2022, published 2026).
# How the values were obtained:
# rM4 receptors = biological target: T1, rM4 receptors (Rattus norvegicus, UniProt P08485); assay: Rat M4 PAM pERK assay; format: cell-based; conditions: CHO cells expressing rM4; EC20 of acetylcholine (10 nM final); TR-FRET
# T1 construct: expressed in transfected cells; host or cells: CHO cells
# T1 sequence (P08485 1-478): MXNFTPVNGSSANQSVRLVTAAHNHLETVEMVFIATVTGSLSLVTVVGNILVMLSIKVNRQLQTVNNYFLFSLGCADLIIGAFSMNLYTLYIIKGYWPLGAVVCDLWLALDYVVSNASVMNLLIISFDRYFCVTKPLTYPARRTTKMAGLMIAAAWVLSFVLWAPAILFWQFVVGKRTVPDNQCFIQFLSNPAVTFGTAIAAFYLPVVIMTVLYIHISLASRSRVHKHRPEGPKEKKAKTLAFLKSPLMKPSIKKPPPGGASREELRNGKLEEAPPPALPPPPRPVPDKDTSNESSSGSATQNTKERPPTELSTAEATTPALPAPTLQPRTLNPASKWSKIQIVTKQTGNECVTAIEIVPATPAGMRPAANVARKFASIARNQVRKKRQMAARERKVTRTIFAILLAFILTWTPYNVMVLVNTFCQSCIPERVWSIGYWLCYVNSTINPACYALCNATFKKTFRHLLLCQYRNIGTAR
# human M4 receptor = biological target: T2, human M4 receptor (Homo sapiens, UniProt P08173); assay: M4 GTPγS PAM assay; format: biochemical; conditions: membranes of CHO-K1 cells stably expressing human M4; EC20 acetylcholine 40 nM; 35S-GTP
# T2 construct: expressed in transfected cells
# T2 sequence (P08173 1-479): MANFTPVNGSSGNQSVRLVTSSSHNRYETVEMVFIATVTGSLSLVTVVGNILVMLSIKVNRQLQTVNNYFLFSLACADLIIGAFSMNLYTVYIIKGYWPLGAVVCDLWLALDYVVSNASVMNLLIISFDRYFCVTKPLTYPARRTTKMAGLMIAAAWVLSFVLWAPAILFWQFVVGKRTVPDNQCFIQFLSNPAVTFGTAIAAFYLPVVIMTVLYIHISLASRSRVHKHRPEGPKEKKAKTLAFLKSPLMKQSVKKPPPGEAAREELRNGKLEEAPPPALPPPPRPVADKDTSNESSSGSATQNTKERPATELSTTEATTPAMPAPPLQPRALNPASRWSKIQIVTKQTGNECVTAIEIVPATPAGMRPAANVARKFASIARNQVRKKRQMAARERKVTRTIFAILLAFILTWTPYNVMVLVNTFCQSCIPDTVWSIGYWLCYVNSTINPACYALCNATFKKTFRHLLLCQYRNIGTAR
# Procedure, shortened: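 CHO-K1 membranes stably expressing human M4, preincubated with compound and 0.1 μM GDP (final) in 20 mM HEPES, 10 mM MgCl2, 100 mM NaCl, pH 7.4, then EC20 acetylcholine (40 nM final). 35S-GTPγS binding 1 h at room temperature, filtration and scintillation counting.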
Compound,EC50 (rM4 receptors) [µM],EC50 (human M4 receptor) [µM]
"COc1nc(C)nc2c1C(C)N(C(=O)CC1CN(c3ccnc(C(F)(F)F)c3)C1)C2 (single isomer, unassigned) [Compound I-52, 1-(4-Methoxy-2,5-dimethyl-5,7-dihydro-6H-pyrrolo[3,4-d]pyrimidin-6-yl)-2-(1-(2-(trifluoromethyl)pyridin-4-yl)azetidin-3-yl)ethan-1-one]",0.1 to 0.5,≤ 0.1
"COc1nc(C#N)nc2c1C(C)N(C(=O)CC1CN(c3ccnc(C(F)(F)F)c3)C1)C2 (single isomer, unassigned) [Compound I-6, 4-Methoxy-5-methyl-6-(2-(1-(2-(trifluoromethyl)pyridin-4-yl)azetidin-3-yl)acetyl)-6,7-dihydro-5H-pyrrolo[3,4-d]pyrimidine-2-carbonitrile]",0.1 to 0.5,≤ 0.1
